Reference: ChEMBL document CHEMBL4665904, “Novel APOL1 Inhibitors for Treating Kidney Diseases” (ACS Med Chem Lett, 2020)

Key:
Apolipoprotein L1 = target: T1, Apolipoprotein L1 (Homo sapiens, UniProt O14791); experiment: Inhibition of APOL1 (unknown origin) in HEK293 cells assessed as thallium influx incubated for 30 mins by FLIPR based thallium influx assay; type: cell-based
T1 sequence (O14791 whole entry): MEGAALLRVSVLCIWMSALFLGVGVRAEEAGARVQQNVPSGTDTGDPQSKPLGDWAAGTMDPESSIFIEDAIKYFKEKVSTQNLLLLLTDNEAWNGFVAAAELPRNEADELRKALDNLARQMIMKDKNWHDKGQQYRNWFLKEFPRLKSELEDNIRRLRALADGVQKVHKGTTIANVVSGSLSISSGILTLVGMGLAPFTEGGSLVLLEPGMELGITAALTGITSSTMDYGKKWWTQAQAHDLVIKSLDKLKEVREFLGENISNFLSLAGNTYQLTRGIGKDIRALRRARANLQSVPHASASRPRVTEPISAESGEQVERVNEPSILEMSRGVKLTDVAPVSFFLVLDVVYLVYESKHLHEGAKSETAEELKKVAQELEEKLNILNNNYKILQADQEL

Trypanosoma brucei = experiment: Trypanocidal activity against bloodstream forms of Trypanosoma brucei using recombinant APOL1 assessed as cell viability incubated for 16 hrs by cell lysis based alamar blue assay; type: functional, organism-based

Work on O=C(CCc1c(-c2ccccc2)[nH]c2c(F)cccc12)N[C@@H]1C(=O)NC[C@H]1O yielded an IC50 (Apolipoprotein L1) of less than 250 nM and an IC50 (Trypanosoma brucei) of less than 250 nM.
In the case of O=C(CCc1c(-c2ccc(F)cc2)[nH]c2c(F)cc(F)cc12)N[C@@H]1C(=O)NC[C@@H]1O, the IC50 (Apolipoprotein L1) is reported as less than 250 nM and the IC50 (Trypanosoma brucei) is reported as less than 250 nM.
Compound O=C(CCc1c(-c2ccccc2)[nH]c2cc(F)c(F)cc12)N[C@@H]1C(=O)NC[C@H]1O has an IC50 (Apolipoprotein L1) of less than 250 nM and an IC50 (Trypanosoma brucei) of less than 250 nM.
Compound COc1ccc(-c2[nH]c3ccccc3c2CCC(=O)N[C@@H]2C(=O)NC[C@H]2O)cc1 has an IC50 (Apolipoprotein L1) of less than 250 nM and an IC50 (Trypanosoma brucei) of less than 250 nM.
N#Cc1ccc(-c2[nH]c3c(F)cc(F)cc3c2CCC(=O)N[C@H]2CCNC2=O)cc1 gave an IC50 (Apolipoprotein L1) of less than 250 nM and an IC50 (Trypanosoma brucei) of less than 250 nM.
N#Cc1cc(F)cc2c(CCC(=O)N[C@@H]3C(=O)NC[C@H]3O)c(-c3ccc(F)cc3)[nH]c12 showed an IC50 (Apolipoprotein L1) of less than 250 nM and an IC50 (Trypanosoma brucei) of less than 250 nM.
